Patent US20100099634A1, “MACROLIDE COMPOUNDS ENDOWED WITH ANTIINFLAMMATORY ACTIVITY” (Zambon S.p.A, priority 2006, published 2010)

Tests used:
[1] = tested on: oedema in mouse ear induced with PMA (phorbol myristate acetate); assay: Acute contact dermatitis: TPA-induced ear oedema in mice; type: in vivo; details: CD1 mice, 500 μg/ear topical in TPDS 30 minutes before 0.01% TPA, ear weight six hours later, vs TPA alone
Experimental: The antiinflammatory activity was evaluated by means of inhibition of the oedema in mouse ear induced with PMA (phorbol myristate acetate). A) Acute Contact Dermatitis Groups of 5 CD1 mice (18-24 g) were used. All the macrolide derivatives were dissolved in Trans-phase Delivery System (TPDS), a carrier containing 10% benzyl alcohol, 40% acetone and 50% isopropanol. 15 microlitres of the compounds (500 μg/ear), dissolved in TPDS, were applied topically to the inner surface of an ear; 30 minutes later, 12 microlitres of a solution of tetradecanoylphorbol acetate (TPA) at a concentration of 0.01% dissolved in acetone were applied to the same area. Six hours later, the animals were sacrificed by inhalation of CO2. The degree of oedema was calculated by subtracting the weight of a specified section of the untreated ear from that of the contralateral treated ear. To determine the degree of remission of the oedema, the weight difference of the groups treated with TPA+macrolides was then compared with the groups treated with TPA alone. The activity of the macrolides was measured by using the modified method of Zunic et al. (1998): MDL (Lysyl) GDP, a non-toxic muramyl dipeptide derivative inhibits cytokine production by activated macrophages and protects mice from phorbol ester- and oxazolone-induced inflammation (J. Invest. Dermatol., 111(1), 77-82).

[2] = tested on: Escherichia coli (ATCC 25922); assay: Antibiotic activity by turbidimetric assay of bacterial growth; type: cell-based; details: for IC20: concentration that inhibits growth of E. coli ATCC 25922 by 20%; for IC20 / IC50 / IC80: maximum test concentration 100 μM, mean of at least three incubation times; for IC50: concentration that inhibits growth of E. coli ATCC 25922 by 50%; for IC80: concentration that inhibits growth of E. coli ATCC 25922 by 80%; for activity towards bacterial growth (in words): turbidimetric assay, strains sensitive to erythromycin and telithromycin

SMILES | Oedema (% inhibition) [1] | IC20 [2] | IC50 [2] | IC80 [2] | IC20 ([2]; Escherichia coli, ATCC25922) | IC50 ([2]; Escherichia coli, ATCC25922) | IC80 ([2]; Escherichia coli, ATCC25922) | activity towards bacterial growth (in words) [2]
CC[C@H]1OC(=O)[C@H](C)[C@@H](O[C@H]2C[C@@](C)(OC)[C@@H](O)[C@H](C)O2)[C@H](C)[C@@H](O[C@@H]2O[C@H](C)C[C@H](N(C)C)[C@H]2O)[C@](C)(O)C[C@@H](C)CN(C)[C@H](C)[C@@H](O)[C@]1(C)O [Azithromycin] | 40% |  |  |  |  |  |  | 
CCC1OC(=O)C(C)C(=O)C(C)C(OC2OC(C)CC(N(C)C(C)=O)C2O)C(C)(OC)CC(C)C(=O)C(C)C2N(CCCCn3cnc(-c4cccnc4)c3)C(=O)OC12C (stereo not shown) [Compound 1, 3′-demethyl-3′-acetyltelithromycin] | 81.7% | > 100000 nM | > 100 µM | > 100 µM |  |  |  | 
CC[C@H]1OC(=O)[C@H](C)[C@@H](O[C@H]2C[C@@](C)(OC)[C@@H](O)[C@H](C)O2)[C@H](C)[C@@H](O[C@@H]2O[C@H](C)C[C@H](N(C)C)[C@H]2O)[C@](C)(O)C[C@@H](C)C(=O)[C@H](C)[C@@H](O)[C@]1(C)O [Erythromycin] | 42% |  |  |  | 3000 nM | 7.8 µM | 24.3 µM | substantial inhibition of the bacterial development
CC[C@H]1OC(=O)[C@H](C)C(=O)[C@H](C)[C@@H](O[C@@H]2O[C@H](C)C[C@H](N(C)C(=O)c3ccccc3)[C@H]2O)[C@](C)(OC)C[C@@H](C)C(=O)[C@H](C)[C@H]2N(CCCCn3cnc(-c4cccnc4)c3)C(=O)O[C@]12C [Compound 2, 3′-demethyl-3′-benzoyltelithromycin] | 81.8% | > 100000 nM | > 100 µM | > 100 µM |  |  |  | 
CC[C@H]1OC(=O)[C@H](C)C(=O)[C@H](C)[C@@H](O[C@@H]2O[C@H](C)C[C@H](N(C)C)[C@H]2O)[C@](C)(OC)C[C@@H](C)C(=O)[C@H](C)[C@H]2N(CCCCn3cnc(-c4cccnc4)c3)C(=O)O[C@]12C [Telithromycin] | 79.7% |  |  |  | 2700 nM | 5.7 µM | 14.9 µM | substantial inhibition of the bacterial development
